{"source": "patent US20090304688A1", "about": "“Methods and Compositions for Increasing the Efficiency of Therapeutic Antibodies Using Gamma Delta T Cell Activators” (INNATE PHARMA S.A., priority 2006, published 2009)", "test_system": "γδ T lymphocytes", "test": "In vivo amplification of γδ T lymphocytes in primates", "data": [{"substance": "3-(bromomethyl)-3-butanol-1-yl-diphosphate [BrHPP]", "values": [{"measurement": "amplification of γδ T lymphocytes in vivo", "setting": "BrHPP 90 mg/kg i.v. with IL-2 in rituximab-treated animals", "result": "efficiently and repeatedly amplified"}, {"measurement": "level and kinetics of γδ T lymphocyte response", "setting": "BrHPP in rituximab-treated animals compared with BrHPP alone", "result": "at least as good as what is generally observed with BrHPP alone"}]}]}
